According to US20070208063A1, “Imidazole-based compounds, compositions comprising them and methods of their use” (priority 2006, published 2007):

Tests used:
circulating lymphocytes = assay: Effects on lymphocytes in mice: whole blood counts (CBC); format: in vivo, mice (F1 hybrids of 129/B6 strain)
Experimental: Unless otherwise indicated, the term “circulating lymphocyte reduction factor” or “CLRF” means the decrease in the number of circulating lymphocytes in mice caused by oral administration of a single dose of a compound at 100 mg/kg, as determined by the method described in the Examples, below. Compounds were administered by oral gavage or in drinking water. For oral dosing experiments, compounds were resuspended from crystals at 10 mg/ml in vehicle (e.g., water). Mice (F1 hybrids of 129/B6 strain) were gavaged with a single 100 mg/kg dose of compound (equivalent to 100 mpk of the free base for each compound) or a vehicle-only control, and returned to their cages. Mice were anesthetized using isofluorane eighteen hours after dosing and tissues were collected for analysis as described below. For drinking water studies, compounds were dissolved at 50 mg/L in acidified water (pH=2.8) containing 10 g/L glucose. The mice were allowed free access to compound-containing water (or glucose solution as a control) for 72 hours. At the end of 72 hours, tissues were collected for analysis. CBC measurements were obtained as follows. Mice were anesthetized with isofluorane and blood was collected from the retroorbital plexus into EDTA blood collection tubes (Capiject-MQK, Terumo Medical Corp., Elkton, Md.). […]

[1] = tested on: lymphocyte egress from the thymus; assay: Effects on lymphocytes in mice: FACS of thymus T cells; format: in vivo, mice (F1 hybrids of 129/B6 strain); details: administered in drinking water; FIGS. 1-3
Experimental: Compounds were administered by oral gavage or in drinking water. For oral dosing experiments, compounds were resuspended from crystals at 10 mg/ml in vehicle (e.g., water). Mice (F1 hybrids of 129/B6 strain) were gavaged with a single 100 mg/kg dose of compound (equivalent to 100 mpk of the free base for each compound) or a vehicle-only control, and returned to their cages. Mice were anesthetized using isofluorane eighteen hours after dosing and tissues were collected for analysis as described below. For drinking water studies, compounds were dissolved at 50 mg/L in acidified water (pH=2.8) containing 10 g/L glucose. The mice were allowed free access to compound-containing water (or glucose solution as a control) for 72 hours. At the end of 72 hours, tissues were collected for analysis. Flow cytometry (FACS) measurements were obtained as follows. Twenty five μl whole blood was lysed by hyoptonic shock, washed once in 2 ml FACS wash buffer (FWB: PBS/0.1% BSA/0.1% NaN3/2 mM EDTA) and stained for 30 minutes at 4° C. in the dark with a combination of fluorochrome-conjugated antibodies diluted in 50 μl FWB. After staining, the cells were washed once with 2 ml FWB and resuspended in 300 μl FWB for acquisition. […] Samples were analyzed using a FACSCalibur flow cytometer and CellQuest Pro software (Becton Dickinson Immunocytometry Systems, San Jose, Calif.). […]

S1P lyase = biological target: T1, S1P lyase (Mus musculus, UniProt Q8R0X7); details: when administered to mice; Schwab et al. 2005; cited from earlier work
T1 construct: host or cells: mice (in vivo)
T1 sequence (Q8R0X7 1-568): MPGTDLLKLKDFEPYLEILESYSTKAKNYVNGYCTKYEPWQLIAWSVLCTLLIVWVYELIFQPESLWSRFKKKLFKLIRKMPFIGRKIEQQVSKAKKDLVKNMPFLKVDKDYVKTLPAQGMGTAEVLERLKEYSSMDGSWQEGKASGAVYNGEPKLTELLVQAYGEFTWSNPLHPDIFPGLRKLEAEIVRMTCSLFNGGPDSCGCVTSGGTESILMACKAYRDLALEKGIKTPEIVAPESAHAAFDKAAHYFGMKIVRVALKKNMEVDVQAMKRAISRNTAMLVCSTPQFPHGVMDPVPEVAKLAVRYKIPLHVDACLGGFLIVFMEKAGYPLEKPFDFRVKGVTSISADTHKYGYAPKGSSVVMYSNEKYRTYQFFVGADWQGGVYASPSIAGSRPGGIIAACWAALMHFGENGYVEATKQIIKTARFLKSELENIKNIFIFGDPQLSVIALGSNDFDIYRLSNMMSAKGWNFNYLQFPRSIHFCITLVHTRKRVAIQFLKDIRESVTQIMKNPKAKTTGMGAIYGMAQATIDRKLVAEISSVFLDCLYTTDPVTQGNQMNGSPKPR

immunological effects = details: studies in humans; Thuvander 1994, Houben 1992; cited from earlier work
[2] = tested on: lymphocytes / mature T cells in the thymus; details: administration to rats and mice; cited from earlier work

| SMILES | effect on circulating lymphocytes (circulating lymphocytes) | effect on lymphocyte egress from the thymus [1] | S1P lyase activity (S1P lyase) | immunological effects (immunological effects) | lymphopenia [2] | mature T cells in the thymus [2] |
| --- | --- | --- | --- | --- | --- | --- |
| CC(=O)c1nc(C)c([C@@H](O)[C@H](O)[C@H](O)CO)s1 [Compound 2, 1-(4-methyl-5-((1S,2R,3R)-1,2,3,4-tetrahydroxybutyl)thiazol-2-yl)ethanone] | little or no effect on circulating lymphocytes | – | – | – | – | – |
| CC(=O)c1nc(C(O)C(O)C(O)CO)c[nH]1 (stereo not shown) [THI, 2-acetyl-4-tetrahydroxybutylimidazole] | capable of reducing circulating lymphocytes in mice | diminished lymphocyte egress from the thymus | inhibits S1P lyase activity | no immunological effects | induces lymphopenia | causes the accumulation of mature T cells in the thymus |
